Entries after “also recorded” stand apart in the source; their conditions may differ. Like-named read-outs stand apart in the source and are kept apart here.

One series concerns bovine adipocytes. Description: Lipolytic activity on isolated bovine adipocytes (FFA production), in relation to Isoprenaline. The format is cell-based. The following applies: for EC50 / Emax: Bos taurus, Adipocyte; for EC50: 1.5 h, read-out: Lipolytic activity: pEC50 (converted); for Emax: read-out: Lipolytic activity: i.a. (intrinsic activity). Here is the method:
Pieces of adipose tissue of approximately 600×600 μm, isolated from bovine animals or sheep, are provided in a teflon container containing: 3 ml of Krebs-Henseleit buffer having a pH of 7.4, 1% w/v of demineralized bovine serum albumin (BSA), 0.33 mg/ml of collagenase and 200 nM of adenosine. […] After 1 hour the suspension is filtered through nylon gauze (100 μm) and washed 2 times with Krebs-Henseleit buffer at room temperature. The incubations are carried out in duplicate, each incubation mixture consisting of 50 μl of the filtered cell suspension, 100 μl of the compound to be tested, 2% w/v of BSA and 50 μg/ml of Na2 S2 O5 (antioxidant) in 2.85 ml of Krebs-Henseleit buffer. Incubation: 90 minutes at 37° C. while shaking and gassing with carbogen. After the incubation, extraction is carried out with 3 ml of 2-propanol/n-hexane/1N-H2 SO4 (40:20:1) mixture. In the organic layer the produced free fatty acids (FFA) are determined. This determination is carried out as follows: 150 μl of sample are diluted with 1 ml of chloroform and then mixed with copper reagent (10% Cu(NO3)2 /2M triethanolamine/2N acetic acid=10:9:1); 0.2% w/v of sodium diethyldithiocarbamate is added. The yellow color is measured in a colorimeter and is a measure of the FFA-production. […] The intrinsic activity is the maximally achievable activity, also measured again with respect to Isoprenaline®.

The next series relates to right atrium. Description: Heart activity: chronotropic effect on isolated right atria, in relation to Isoprenaline. The format is cell-based, male Wistar rats. The following applies: for Emax: read-out: Chronotropic effect on the right atrium: i.a. (intrinsic activity); for EC50: read-out: Chronotropic effect on the right atrium: pEC50 (converted). Here is the method:
The heart activity has been determined in heart tissue of rats. It is known that rats are just as suitable for the determination of the heart activity (chronotropy) as the agricultural domestic animals mentioned hereinbefore.
The substances are tested with respect to their chronotropic effect on isolated right atria under a pre-load with 0.5 g, in an organ bath which contains the above Krebs buffer solution and is kept at 37° C. Dose-response curves with Isoprenaline® are determined. The results are again expressed as pEC50 values and, in relation to Isoprenaline®, as intrinsic activities ("i.a.").

The subject of the next series is heart. The following applies: in the dosages required for the intended purpose; cited from earlier work.
The next series deals with ovine adipocytes. Description: Lipolytic activity on isolated ovine adipocytes (FFA production), in relation to Isoprenaline. In kind it is cell-based, sheep. From the text: It is known, for example, from a contribution by R. G. Vernon in "New perspectives in Adipose Tissue; structure, function and development", page 76, edited by Cryer and Van, Butterworths 1984, London, that there exists a good relationship between the lipolytic activity on the one hand and the activity as a repartitioning agent on the other hand. This means that a high value for the lipolytic activity is predictable for the increase of the muscle/fat ratio and for improving the growth and the feed efficiency of agricultural domestic animals. The influence of the tested compounds on the lipolysis of adipocytes is described in example I hereinafter. Bovine and ovine adipocytes, i.e. adipocytes of representative examples of agricultural domestic animals, have been used in this example.
Pieces of adipose tissue of approximately 600×600 μm, isolated from bovine animals or sheep, are provided in a teflon container containing: 3 ml of Krebs-Henseleit buffer having a pH of 7.4, 1% w/v of demineralized bovine serum albumin (BSA), 0.33 mg/ml of collagenase and 200 nM of adenosine. The adipocytes are isolated by shaking the container at 37° C. under carbogen gassing (approximately 5% CO2 in 95% O2). After 1 hour the suspension is filtered through nylon gauze (100 μm) and washed 2 times with Krebs-Henseleit buffer at room temperature. The incubations are carried out in duplicate, each incubation mixture consisting of 50 μl of the filtered cell suspension, 100 μl of the compound to be tested, 2% w/v of BSA and 50 μg/ml of Na2 S2 O5 (antioxidant) in 2.85 ml of Krebs-Henseleit buffer. Incubation: 90 minutes at 37° C. while shaking and gassing with carbogen. […] In the organic layer the produced free fatty acids (FFA) are determined. […] The yellow color is measured in a colorimeter and is a measure of the FFA-production. […] In addition to the fond pEC50 values, the values for the intrinsic activity ("i.a.") have been recorded in Table A hereinafter. The intrinsic activity is the maximally achievable activity, also measured again with respect to Isoprenaline®.

The next series relates to swine adipose tissue. The following applies: Mersmann, cited from earlier work; for lipolytic activity, in words: pigs.
Another series has as its system heart rate. The following applies: pig, in vivo; cited from earlier work.
Setting [1] is: compared with tested known substances / in the concentration required for the intended use.

Take `CC(C)(C)NCC(O)c1cc(Cl)c(N)c(Cl)c1` (stereo not shown) [Clenbuterol]: the EC50 in the series with bovine adipocytes is 1580 nM; in the series with right atrium (Rattus norvegicus), 50.1 nM. Moreover, the Emax turned out to be 30% in the series on bovine adipocytes and 40% in the series with right atrium (Rattus norvegicus). For the same molecule, in the series on heart, the “side effects on the heart, in words” value is “serious side effects because in the dosages required for the intended purpose an undesired influence on the heart is exerted”.

With `CC(C)(Cc1ccc(O)cc1)NCC(O)c1cc(O)cc(O)c1` (stereo not shown) [(1), 1-(3,5-dihydroxyphenyl)-2-[1,1-dimethyl-2-(4-hydroxyphenyl)ethylamino]ethanol], the EC50 with bovine adipocytes is 3160 nM; in the series with ovine adipocytes (Ovis aries, Adipocyte, 1.5 h, 90 minutes at 37° C., pEC50 = negative logarithm of concentration at 50% of maximum effect), 501 nM; with right atrium (Rattus norvegicus) it was 2510 nM. Besides, the Emax with bovine adipocytes stood at 80%; with ovine adipocytes (Ovis aries, Adipocyte, maximally achievable activity with respect to Isoprenaline, read-out: Lipolytic activity: i.a. (intrinsic activity)), 140%; in the series on right atrium (Rattus norvegicus) it was 40%. Moreover, the “lipolytic activity on bovine adipocytes, in words” value with bovine adipocytes (bovine adipocytes) is reported as “remarkably high lipolytic activity”. Further, in the series on bovine adipocytes (versus Ractopamine and Clenbuterol), the “intrinsic lipolytic activity, comparison in words” value is “significantly higher than that of the phenylalkylamino derivatives Ractopamine® and Clenbuterol®”. Moreover, the “lipolytic activity on ovine adipocytes, in words” value with ovine adipocytes was “remarkably high lipolytic activity”. Also, the “heart activity, in words” value in the series on right atrium (setting [1]) is “considerably lower than that of the substances Ractopamine®, Fenoterol® and Clenbuterol®; also recorded: without a burdensome heart activity being experienced”; with right atrium (compared with tested known substances / in the concentration required for the intended use, listed as 1-(3,5-dihydroxyphenyl)-2-[1,1-dimethyl-2-(4-hydroxyphenyl)-ethylamino]ethanol) it was “low heart effect”. Further, in the series with swine adipose tissue, the “lipolytic activity, in words” value is “low lipolytic activity”. Moreover, in the series on swine adipose tissue (swine adipose tissue, relative to Fenoterol), the “relative ED50 (lipolysis)” value was “approximately ten times as high as that of Fenoterol®”.

For `CC(C)(C)NCC(O)c1cc(O)cc(O)c1` (stereo not shown) [terbutaline], the “lipolytic activity, in words” value with swine adipose tissue is reported as “less active in lipolysis”. Moreover, in the series with heart rate, the “increasing heart rate, in words” value is listed as “more active in increasing heart rate”.

In the case of `CC(CCc1ccc(O)cc1)NCC(O)c1ccc(O)cc1` (stereo not shown) [Ractopamine], the EC50 in the series with bovine adipocytes (bovine adipocytes, 90 minutes at 37° C., pEC50 = negative logarithm of concentration at 50% of maximum effect) was 2510 nM; with right atrium (isolated rat right atria, pre-load 0.5 g, Krebs buffer, 37° C.), 31.6 nM. In addition, the Emax is 60% in the series on bovine adipocytes (bovine adipocytes, maximally achievable activity with respect to Isoprenaline) and 100% in the series on right atrium (isolated rat right atria, in relation to Isoprenaline). In addition, in the series with right atrium, the “heart activity, in words” value is recorded as “considerable heart activity in the required concentration”. Also, the “side effects on the heart, in words” value with heart is “serious side effects because in the dosages required for the intended purpose an undesired influence on the heart is exerted”.

`CC(Cc1ccc(O)cc1)NCC(O)c1cc(O)cc(O)c1` (stereo not shown) [Fenoterol]: in the series with bovine adipocytes, the EC50 is 794 nM and the Emax amounted to 80%. Besides, in the series on right atrium (Rattus norvegicus), the Emax was found to be 100% and the EC50 was 251 nM. Further, the “heart activity, in words” value in the series with right atrium (setting [1]) is given as “considerable heart activity in the concentration required for the intended purpose”.

The values above are taken from patent US5266589A, “Method of increasing the muscle/fat ratio in agricultural domestic animals” (Duphar International Research B.V., priority 1990, dated 1993).
